Read-outs that look alike come from different tables or passages of the source.
How the values were obtained:
[1] = biological target: T1, recombinant α1β2γ2 GABAA receptors (Homo sapiens, UniProt P14867+P47870); test: Patch clamp electrophysiology, QPatch, LTK cells; type: cell-based; settings: 10 μM test article, GABA EC20 = 2 μM, read-out: GABA (α1β2γ2) Qpatch in Ltk, % efficacy at 10 μM
T1 construct: expressed in transfected cells

[2] = biological target: T2, recombinant α4β3δ GABAA receptors (Homo sapiens, UniProt P28472+P48169); test: Patch clamp electrophysiology, manual patch, CHO cells; type: cell-based; settings: 10 μM test article, GABA EC20 = 2 μM, read-out: GABA (α4β3δ) Manual patch in CHO, % efficacy at 10 μM
T2 construct: expressed in transfected cells; host or cells: CHO cells (transient transfection, Lipofectamine)

[3] = biological target: [35S]-TBPS binding, rat brain cortical membranes (GABA receptor complex); test: [35S]-TBPS binding (steroid inhibition of TBPS binding); settings: in the presence of 5 μM GABA, read-out: 35S-TBPS Radioligand Displacement
Protocol: [35S]-t-Butylbicyclophosphorothionate (TBPS) binding assays using rat brain cortical membranes in the presence of 5 μM GABA has been described (Gee et al, J. Pharmacol. Exp. Ther. 1987, 241, 346-353; Hawkinson et al, Mol. Pharmacol. 1994, 46, 977-985; Lewin, A. H et al., Mol. Pharmacol. 1989, 35, 189-194).
Briefly, cortices are rapidly removed following decapitation of carbon dioxide-anesthetized Sprague-Dawley rats (200-250 g). The cortices are homogenized in 10 volumes of ice-cold 0.32 M sucrose using a glass/teflon homogenizer and centrifuged at 1500×g for 10 min at 4° C. The resultant supernatants are centrifuged at 10,000×g for 20 min at 4° C. to obtain the P2 pellets. The P2 pellets are resuspended in 200 mM NaCl/50 mM Na-K phosphate pH 7.4 buffer and centrifuged at 10,000×g for 10 min at 4° C. This washing procedure is repeated twice and the pellets are resuspended in 10 volumes of buffer. Aliquots (100 μL) of the membrane suspensions are incubated with 3 nM [^35S]-TBPS and 5 μL aliquots of test drug dissolved in dimethyl sulfoxide (DMSO) (final 0.5%) in the presence of 5 μM GABA. The incubation is brought to a final volume of 1.0 mL with buffer. Nonspecific binding is determined in the presence of 2 μM unlabeled TBPS and ranged from 15 to 25%. Following a 90 min incubation at room temp, the assays are terminated by filtration through glass fiber filters (Schleicher and Schuell No. 32) using a cell harvester (Brandel) and rinsed three times with ice-cold buffer. Filter bound radioactivity is measured by liquid scintillation spectrometry. Non-linear curve fitting of the overall data for each drug averaged for each concentration is done using Prism (GraphPad). […] The concentration of test compound producing 50% inhibition (IC50) of specific binding and the maximal extent of inhibition (Imax) are determined for the individual experiments with the same model used for the overall data and then the means±SEM.s of the individual experiments are calculated.
Various compounds are or can be screened to determine their potential as modulators of [^35S]-TBPS binding in vitro. These assays are or can be performed in accordance with the above discussed procedures.

[4] = test system: PTZ-treated male CD-1 mice; test: Acute PTZ (pentylenetetrazol-induced seizure) method in mice; type: in vivo; settings: Mus musculus, latency to tonic seizures, read-out: Anticonvulsive Effect Dose (minimal effective anticonvulsant dose)
Protocol: The anticonvulsant effect of test compounds were assessed in the pentylenetetazol-induced seizure assay in mice similar to methods described in Giardina & Gasior (2009) Curr Protoc Pharmacol., Chapter 5. Male CD-1 mice were housed in groups of five under controlled conditions (temperature of 22±2° C. and 12:12 light-dark cycle, lights on at 8:00 am) and water and food were available ad libitum. The mice were housed for 1 week prior to behavioral testing, at which time they weighed 25-35 g. Pentylenetetrazol (PTZ, Sigma) was dissolved in sterile 0.9% saline at a concentration of 12 mg/mL concentration for subcutaneous administration. Test compounds were formulated and administered via oral gavage or intraperitoneal injection at a predetermined time-point (typically 30 or 60 minutes) prior to PTZ injection. All solutions were made fresh and were given in a volume of 10 ml/kg body weight.
Mice were acclimated to the test room for at least 30 min before compound administration. Mice were randomized into at least four test groups (vehicle and at least three doses of the test compound) with 10 mice per group. […] Following the drug pretreatment time the mice were injected s.c. with PTZ (120 mg/kg). Immediately following the PTZ injection, mice were individually placed into observation chambers (25×15×15 cm) and a three-channel timer was started. Each mouse was continuously observed for 30 min and the following behaviors were recorded by observers blinded to the treatments: 1) latency to clonic convulsions that persist for 3 sec and followed by an absence of righting reflex 2) latency to tonic convulsions, characterized by the rigid extension of all four limbs that exceeded a 90 degree angle with the body 3) latency to death 4) number of clonic and tonic convulsions. Data are presented as mean±S.E.M and one-way analysis of variance with Dunnett's or Bonferroni's post-hoc test was used to detect significant differences in latency and number between the vehicle and dose group. p values<0.05 were regarded as statistically significant.

male Sprague Dawley rats = test: Loss of righting reflex in rats; type: in vivo; settings: Rat IV, 5 mpk
Protocol: Loss of Righting Reflex in Rats
The plasma pharmacokinetics and a qualitative assessment of sedation were obtained in male Sprague Dawley rats according to the following procedure. Rats were dosed by intravenous bolus dose (60 seconds) via the foot dorsal vein at doses ranging from 5 to 15 mg/kg in an appropriate vehicle. In order to assess sedation, rats were gently restrained by hand to a lateral position for dose administration. […] If the animal was unable to return to an upright position, the time was recorded as the onset of loss of righting reflex (LRR). […] Sluggish or incomplete righting twice consecutively within a 30 second interval qualifies as a loss of righting reflex. After onset of LRR, animals were assessed every 5 minutes in the same manner. Recovery of righting reflex is defined as the ability of a rat to right itself completely within 20 seconds of being placed in dorsal recumbency. The duration of LRR is defined as the time interval between LRR and the return of righting reflex.

T2 sequence (P48169 36-554): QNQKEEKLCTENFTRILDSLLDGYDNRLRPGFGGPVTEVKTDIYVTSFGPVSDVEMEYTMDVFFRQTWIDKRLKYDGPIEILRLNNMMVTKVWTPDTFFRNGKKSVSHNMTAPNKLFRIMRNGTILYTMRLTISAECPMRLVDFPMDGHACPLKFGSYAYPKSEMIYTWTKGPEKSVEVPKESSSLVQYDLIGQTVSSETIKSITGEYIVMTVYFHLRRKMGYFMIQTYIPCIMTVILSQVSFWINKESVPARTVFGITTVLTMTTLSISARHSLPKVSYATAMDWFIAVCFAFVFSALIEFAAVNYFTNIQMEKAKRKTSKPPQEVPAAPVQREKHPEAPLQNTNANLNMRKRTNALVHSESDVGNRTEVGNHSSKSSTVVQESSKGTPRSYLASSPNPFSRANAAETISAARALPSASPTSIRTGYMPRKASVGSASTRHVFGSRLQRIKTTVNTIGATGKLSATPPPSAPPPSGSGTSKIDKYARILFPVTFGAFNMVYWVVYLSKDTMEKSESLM
T2 sequence (P28472 26-473): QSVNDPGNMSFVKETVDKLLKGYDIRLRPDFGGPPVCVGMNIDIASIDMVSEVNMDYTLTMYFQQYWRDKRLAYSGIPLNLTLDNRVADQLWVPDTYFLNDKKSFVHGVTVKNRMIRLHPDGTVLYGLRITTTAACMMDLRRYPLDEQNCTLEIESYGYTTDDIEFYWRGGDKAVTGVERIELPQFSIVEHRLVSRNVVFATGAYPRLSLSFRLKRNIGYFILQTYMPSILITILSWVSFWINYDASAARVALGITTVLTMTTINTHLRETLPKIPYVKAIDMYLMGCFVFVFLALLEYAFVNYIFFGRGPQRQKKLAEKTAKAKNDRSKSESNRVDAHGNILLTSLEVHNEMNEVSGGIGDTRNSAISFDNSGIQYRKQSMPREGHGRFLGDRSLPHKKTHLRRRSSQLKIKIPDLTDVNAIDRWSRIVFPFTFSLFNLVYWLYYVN
T2 sequence (O14764 17-452 partner limits assumed): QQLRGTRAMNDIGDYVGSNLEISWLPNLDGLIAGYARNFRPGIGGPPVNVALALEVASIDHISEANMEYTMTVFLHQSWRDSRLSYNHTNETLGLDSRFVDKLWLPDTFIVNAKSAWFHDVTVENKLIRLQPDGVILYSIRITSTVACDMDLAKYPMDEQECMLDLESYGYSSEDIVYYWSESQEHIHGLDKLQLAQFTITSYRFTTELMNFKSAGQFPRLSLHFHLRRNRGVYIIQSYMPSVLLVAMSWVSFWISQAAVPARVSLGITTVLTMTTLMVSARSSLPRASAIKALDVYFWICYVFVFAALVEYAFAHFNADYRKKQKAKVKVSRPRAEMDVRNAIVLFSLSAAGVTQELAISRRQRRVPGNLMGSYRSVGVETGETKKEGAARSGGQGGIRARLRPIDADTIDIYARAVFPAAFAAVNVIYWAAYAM
T1 sequence (P14867 28-456): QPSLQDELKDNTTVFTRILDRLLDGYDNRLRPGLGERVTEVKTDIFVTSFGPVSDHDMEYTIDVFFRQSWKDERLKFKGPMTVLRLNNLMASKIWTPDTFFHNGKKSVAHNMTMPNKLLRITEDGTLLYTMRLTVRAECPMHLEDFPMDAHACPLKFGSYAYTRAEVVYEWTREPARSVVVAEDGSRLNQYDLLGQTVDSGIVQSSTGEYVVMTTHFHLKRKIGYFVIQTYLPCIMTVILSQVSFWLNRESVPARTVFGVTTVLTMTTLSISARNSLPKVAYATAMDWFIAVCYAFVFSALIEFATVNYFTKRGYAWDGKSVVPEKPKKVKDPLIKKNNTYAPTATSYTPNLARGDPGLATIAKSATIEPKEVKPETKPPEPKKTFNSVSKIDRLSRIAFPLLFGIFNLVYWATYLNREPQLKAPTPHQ
T1 sequence (P47870 25-512 limits assumed): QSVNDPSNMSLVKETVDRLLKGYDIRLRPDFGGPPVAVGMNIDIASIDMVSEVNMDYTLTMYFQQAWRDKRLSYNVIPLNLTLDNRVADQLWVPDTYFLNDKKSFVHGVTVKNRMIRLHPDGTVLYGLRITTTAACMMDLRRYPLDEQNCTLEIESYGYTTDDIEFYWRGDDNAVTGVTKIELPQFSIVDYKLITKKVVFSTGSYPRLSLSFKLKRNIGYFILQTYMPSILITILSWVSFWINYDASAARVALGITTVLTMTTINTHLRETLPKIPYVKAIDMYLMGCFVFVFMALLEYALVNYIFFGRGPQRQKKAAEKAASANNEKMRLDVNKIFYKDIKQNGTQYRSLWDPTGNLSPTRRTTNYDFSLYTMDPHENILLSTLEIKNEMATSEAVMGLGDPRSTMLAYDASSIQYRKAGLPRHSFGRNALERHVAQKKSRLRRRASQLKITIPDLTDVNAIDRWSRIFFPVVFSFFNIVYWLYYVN
T1 sequence (P18507 40-475 partner): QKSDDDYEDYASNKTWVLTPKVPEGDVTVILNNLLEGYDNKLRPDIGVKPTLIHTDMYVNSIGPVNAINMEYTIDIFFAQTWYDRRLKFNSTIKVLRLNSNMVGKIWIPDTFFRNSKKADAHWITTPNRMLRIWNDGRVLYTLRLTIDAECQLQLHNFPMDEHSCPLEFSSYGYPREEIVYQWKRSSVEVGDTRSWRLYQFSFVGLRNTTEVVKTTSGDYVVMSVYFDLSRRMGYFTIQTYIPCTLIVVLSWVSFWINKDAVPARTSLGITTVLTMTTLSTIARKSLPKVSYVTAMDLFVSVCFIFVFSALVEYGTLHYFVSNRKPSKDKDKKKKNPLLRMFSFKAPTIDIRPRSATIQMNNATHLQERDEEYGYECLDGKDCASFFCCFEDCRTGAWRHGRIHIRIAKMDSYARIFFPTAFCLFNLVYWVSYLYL

| SMILES | Emax at 10 µM [1] [%] | Emax at 10 µM [2] [%] | IC50 [3] [nM] | minimal effective dose ([4]; PO (oral administration)) [mg/kg] | minimal effective dose ([4]; IP (intraperitoneal injection)) [mg/kg] | Duration of Rat LRR (male Sprague Dawley rats) | Emax at 10 µM ([1]; in cremophor) [%] | Emax at 10 µM ([2]; in cremophor) [%] |
| --- | --- | --- | --- | --- | --- | --- | --- | --- |
| Cc1nnnn1CC(=O)[C@H]1CC[C@H]2[C@@H]3CC[C@@H]4C[C@@](O)(CF)CC[C@@H]4[C@H]3CC[C@]12C [SF-2] | 100 to 500 | > 500 | – | – | – | – | – | – |
| C[C@@]1(O)CC[C@H]2[C@@H](CC[C@@H]3[C@@H]2CC[C@]2(C)[C@@H](C(=O)Cn4cncn4)CC[C@@H]32)C1 [SB-1] | – | > 500 | 100 to 500 | – | – | – | – | – |
| C[C@@]1(O)CC[C@@H]2[C@H]3CC[C@]4(C)[C@@H](C(=O)Cn5ccnn5)CC[C@H]4[C@@H]3C[C@@H](F)[C@H]2C1 [SV-1] | 100 to 500 | 100 to 500 | 100 to 500 | 1 to 3 | – | – | – | – |
| C[C@@]1(O)CC[C@H]2[C@@H](CC[C@@H]3[C@@H]2CC[C@]2(C)[C@@H](C(=O)Cn4ccnn4)CC[C@@H]32)C1 [SB-6] | 100 to 500 | 100 to 500 | 50 to 100 | – | 1 to 3 | – | – | – |
| CC[C@@]1(O)CC[C@H]2[C@H](CC[C@@H]3[C@@H]2CC[C@]2(C)[C@@H](C(=O)Cn4nccn4)CC[C@@H]32)C1 [SE-4] | 100 to 500 | > 500 | 50 to 100 | – | – | A (A ≤ 20 min) | – | – |
| COC[C@@]1(O)CC[C@H]2[C@@H](CC[C@@H]3[C@@H]2CC[C@]2(C)[C@@H](C(=O)Cn4ccnn4)CC[C@@H]32)C1 [SI-2] | 100 to 500 | > 500 | 100 to 500 | 1 to 3 | – | – | – | – |
| COC[C@@]1(O)CC[C@H]2[C@@H](CC[C@@H]3[C@@H]2CC[C@]2(C)[C@@H](C(=O)Cn4cnnn4)CC[C@@H]32)C1 [SI-1] | 100 to 500 | > 500 | 100 to 500 | 1 to 3 | – | – | – | – |
| COC[C@@]1(O)CC[C@H]2[C@@H](CC[C@@H]3[C@@H]2CC[C@]2(C)[C@@H](C(=O)Cn4nnnc4C)CC[C@@H]32)C1 [SI-3] | 100 to 500 | > 500 | – | ≤ 1 | – | – | – | – |
| C[C@@]1(O)CC[C@H]2[C@H](CC[C@@H]3[C@@H]2CC[C@]2(C)[C@@H](C(=O)Cn4ncc(C(N)=O)n4)CC[C@@H]32)C1 [SA-13] | – | – | – | – | – | – | 100 to 500 | > 500 |
| CO[C@H]1C[C@H]2[C@@H](CC[C@@H]3[C@@H]2CC[C@]2(C)[C@@H](C(=O)Cn4nccn4)CC[C@@H]32)C[C@]1(C)O [SU-2] | 100 to 500 | > 500 | 50 to 100 | – | – | – | – | – |
| C[C@@]1(O)CC[C@H]2[C@H](CC[C@@H]3[C@@H]2CC[C@]2(C)[C@@H](C(=O)Cn4cnnn4)CC[C@@H]32)C1 [SA-2] | > 500 | 100 to 500 | 50 to 100 | 1 to 3 | – | – | – | – |
| Cc1nnnn1CC(=O)[C@H]1CC[C@H]2[C@@H]3CC[C@H]4C[C@](C)(O)CC[C@@H]4[C@H]3CC[C@]12C [SB-4] | 100 to 500 | > 500 | – | – | – | – | – | – |
| C[C@@]1(O)CC[C@@H]2[C@H]3CC[C@]4(C)[C@@H](C(=O)Cn5cnnn5)CC[C@H]4[C@@H]3C[C@@H](F)[C@H]2C1 [SV-4] | 100 to 500 | 100 to 500 | – | 1 to 3 | – | – | – | – |
| Cc1nnnn1CC(=O)[C@H]1CC[C@H]2[C@@H]3C[C@@H](F)[C@H]4C[C@](C)(O)CC[C@@H]4[C@H]3CC[C@]12C [SV-6] | 100 to 500 | 100 to 500 | – | – | – | – | – | – |
| Cc1cnnn1CC(=O)[C@H]1CC[C@H]2[C@@H]3CC[C@@H]4C[C@](C)(O)CC[C@@H]4[C@H]3CC[C@]12C [SA-4] | > 500 | > 500 | – | – | – | – | – | – |
| Cc1nnnn1CC(=O)[C@H]1CC[C@H]2[C@@H]3CC[C@@H]4C[C@](C)(O)CC[C@@H]4[C@H]3CC[C@]12C [SA-6] | 100 to 500 | > 500 | 1 to 50 | 1 to 3 | – | – | – | – |
| C[C@@H]1C[C@H]2[C@@H](CC[C@@H]3[C@@H]2CC[C@]2(C)[C@@H](C(=O)Cn4nccn4)CC[C@@H]32)C[C@]1(C)O [SN-2] | 100 to 500 | 100 to 500 | 1 to 50 | – | – | – | – | – |
| C[C@@]1(O)CC[C@@H]2[C@H]3CC[C@]4(C)[C@@H](C(=O)Cn5ncnn5)CC[C@H]4[C@@H]3C[C@@H](F)[C@H]2C1 [SV-3] | 100 to 500 | > 500 | – | – | – | A (A ≤ 20 min) | – | – |
| CCO[C@H]1C[C@H]2[C@@H](CC[C@@H]3[C@@H]2CC[C@]2(C)[C@@H](C(=O)Cn4nccn4)CC[C@@H]32)C[C@]1(C)O [SY-2] | 100 to 500 | > 500 | 100 to 500 | – | – | – | – | – |
| C[C@]12CC[C@H]3[C@@H](CC[C@@H]4C[C@@](O)(C(F)F)CC[C@@H]43)[C@@H]1CC[C@@H]2C(=O)Cn1cnnn1 [SG-1] | 100 to 500 | 100 to 500 | – | – | – | – | – | – |
| C[C@H]1C[C@H]2[C@@H](CC[C@@H]3[C@@H]2CC[C@]2(C)[C@@H](C(=O)Cn4nccn4)CC[C@@H]32)C[C@]1(C)O [SZ-2] | 100 to 500 | 100 to 500 | 50 to 100 | – | – | – | – | – |
| C[C@]12CC[C@H]3[C@@H](CC[C@@H]4C[C@@](O)(CF)CC[C@@H]43)[C@@H]1CC[C@@H]2C(=O)Cn1ccnn1 [SF-4] | 100 to 500 | – | 100 to 500 | – | – | – | – | – |
| C[C@@]1(O)CC[C@H]2[C@@H](CC[C@@H]3[C@@H]2CC[C@]2(C)[C@@H](C(=O)Cn4cnnn4)CC[C@@H]32)C1 [SB-2] | 100 to 500 | 100 to 500 | 100 to 500 | – | > 3 | – | – | – |
| C[C@]12CC[C@H]3[C@@H](CC[C@@H]4C[C@@](O)(C(F)F)CC[C@@H]43)[C@@H]1CC[C@@H]2C(=O)Cn1ccnn1 [SG-5] | > 500 | > 500 | 100 to 500 | – | – | – | – | – |
| C[C@@]1(O)CC[C@H]2[C@H](CC[C@@H]3[C@@H]2CC[C@]2(C)[C@@H](C(=O)Cn4ccnn4)CC[C@@H]32)C1 [SA-9] | 100 to 500 | > 500 | 1 to 50 | – | 1 to 3 | – | – | – |
